# Measured values as given in patent US8349801B2, “Peptide ligands for G-protein coupled receptors” (priority 2006, dated 2013).
# No end group written: not given here.
# Key:
# [1] = test system: aortic rings from Wistar rat; assay: Vasorelaxant activity in phenylephrine pre-contracted aortic rings
# From the text: Male Wistar rats of the age of 13-14 weeks (body weight: 250 to 300 g) were used. The rats were exposed to light-dark cycle of 12 hs (day—06:00 to 18:00; night—18:00 to 06:00) controlled by timer. Rats were killed by decapitation and exsanguination and tissues were rapidly removed.
# Rings (3-4 mm) from the descending thoracic aorta, free of adipose and connective tissue, were set up in gassed (95% O2 and 5% CO2) Krebs-Henseleit solution (mmol/L): NaCl 110.8, KCl 5.9, NaHCO3 25.0, MgSO4 1.07, CaCl2 2.49, NaH2PO4 2.33 and glucose 11.51, at 37° C., under a tension of 1.0 g, for 1 hour to equilibrate. The presence of functional endothelium was assessed by the ability of Acetylcholine (1 μM) to induce more than 70% relaxation of vessels pre-contracted with phenylephrine (0.3 μM) (Lemos et al., 2005). When necessary, the endothelium was removed by rubbing the intimal surface with a wooden stick. Mechanical activity, recorded isometrically by a force transducer (Panlab, model number TR1210, Spain), was fed to an amplifier-recorder (Powerlab 4/20, ADInstruments, Inc.) and to a personal computer equipped with an analogue-to-digital converter board (AD16JR; World Precision Instruments, Inc.), using CVMS data acquisition/recording software (World Precision Instruments, Inc.).
# The vasorelaxant activity of peptides —P61_S (SEQ ID NO:10), P61 (SEQ ID NO.9)-dimer (P61_D), P33_V (SEQ ID NO:7) and P33 (SEQ ID NO:6)-dimer (P33_D) were measured in vessels (N=5-8) with or without functional endothelium pre-contracted to the same tension level (approximately 1.5 g of tension) induced by submaximal concentrations of phenylephrine (0.01 μM). For comparison, the effect of Ang-(1-7) was also tested (N=4)
# P61_S (SEQ ID NO:10), P61 (SEQ ID NO9)-dimer (P61_D), P33_V (SEQ ID NO:7) or P33 (SEQ ID NO:6)-dimer (P33_D) were added in increasing cumulative concentrations (0.0001 to 1 μM) once the response to phenylephrine had stabilized (FIG. 28). In order to verify the participation of endothelium-derived products in the relaxant effect of peptides, experiments were performed in the presence of 100 μM N′-Nitro-L-Arginine Methyl Ester-[L-NAME]—a nonselective inhibitor of nitric oxide synthase. In experiments performed in the presence of L-NAME, vessels were pre-contracted with 0.03 μM of phenylephrine, to achieve the same tension level as the others. L-NAME was added to the bath 20 min prior to the addition of phenylephrine.
# Results are presented as mean±SEM. Two-way analysis of variance (ANOVA) with Bonferroni multiple comparison post-test was used to compare concentration response curves obtained in aortic rings. The vasodilator effect of P61_S (SEQ ID NO:10), P61 (SEQ ID N09)-dimer (P61_D), P33_V (SEQ ID NO:7), P33 (SEQ ID NO:6)-dimer (P33_D) and Ang-(1-7) were expressed as percentage decrease in maximal contraction induced by phenylephrine. All statistical analyses were considered significant when p<0.05.
# Mas receptor = target: T1, Mas receptor (Homo sapiens, UniProt P04201); assay: Calcium flux in CHO-K1 cells co-transfected with Mas receptor and Gα16; type: cell-based; conditions: dose response
# T1 construct: expressed in transfected cells; host or cells: CHO-K1 (ATCC-CCL-61), transient co-transfection
# T1 sequence (P04201 1-325): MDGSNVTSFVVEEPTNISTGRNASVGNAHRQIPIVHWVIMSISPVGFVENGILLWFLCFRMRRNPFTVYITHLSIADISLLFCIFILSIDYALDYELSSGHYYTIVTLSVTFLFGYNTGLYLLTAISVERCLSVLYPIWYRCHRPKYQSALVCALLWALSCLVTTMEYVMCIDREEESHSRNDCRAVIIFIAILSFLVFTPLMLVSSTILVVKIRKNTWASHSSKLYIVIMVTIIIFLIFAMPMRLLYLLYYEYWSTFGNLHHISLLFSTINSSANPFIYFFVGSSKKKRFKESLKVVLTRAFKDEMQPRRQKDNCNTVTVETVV
# Experimental: The assay was carried out in CHO cells were transiently transfected with the GPCR of choice, by utilizing the promiscuous Gα16 to divert signaling to the Gq pathway, thus enabling readout of GPCR activation by testing for Calcium flux as described by Liu et al 2003 (Biomol Screen 8, 39-49).
# All the peptides thus obtained were tested for their ability to change calcium flux in CHO—K1 cells (ATCC-CCL-61) transiently co-transfected with an expression vector containing the GPCR of choice and expression vector containing the Gα16 encoding cDNA. Expression constructs containing cDNA clones for MrgX1, MrgX2, Mas or FPRL1 were commercially obtained in one of the following expression vectors: pcDNA3.1, pCMV6, or MO2.
# Transient transfections were performed using CHO—K1 cells as host cells. Cells (12 million) were plated into T75 flasks on the day preceding transfection. Cells were transfected with the appropriate GPCR expression vector and with a vector expressing Gα16 using a lipid-based reagent, MTI, according to the manufacturer's recommendation. Cells were transfected for 5 hours, then re-plated into 96-well dishes (60,000 cells per well) and grown overnight.
# On the day of the experiment, cells were loaded with Fluo4-NW (Invitrogen) according to the manufacturer's recommendation. Plates were loaded into a FlexStation™ (Molecular Devices) plate reader and fluorescence was monitored. Seventeen seconds following initiation of reading, cells were stimulated with the indicated agonist/compound at final concentration of 1 μM. Each 96 well plate contained cells transfected with one GPCR expression vector and each of the examined peptides was tested in triplicate.
# We defined a hit as a peptide which elicited a clear and distinct increase in intracellular calcium that is clearly visible and statistically significant upon examination of the calcium trace for at least two repeats. The criterion for statistical significance was a p-value lower than 0.001 in a t-test comparing the levels of calcium before and after peptide addition.
# Based on dose response experiments, EC50 best fit values were calculated by non-linear regression of sigmoidal dose-response curves, using Prism version 4 (GraphPad Software Inc., San Diego, Calif.). The formulae for the sigmoidal dose-response curves was defined as Y=Bottom+(Top−Bottom)/(1+10^ (LogEC50−X)*HillSlope))
# The ability of Peptides to change calcium flux was examined in CHO—K1 cells co-transfected with Mas receptor and Gα16.
sequence,measurement,setting,value
FLGYCIYLNRKRRGDPAFKRRLRD (also: dimer via cysteine; listed as Homo sapiens) [Peptide P61_dimer],vasodilator effect in the presence of L-NAME,"[1]; 100 μM L-NAME, NO synthase inhibitor",markedly inhibited
same,vasodilator effect in the absence of functional endothelium,[1]; endothelium-denuded vessels,abolished
same,Maximal values for the relaxant effect (Emax),"[1]; vessels with endothelium, 0.0001 to 1 μM cumulative, mean±SEM",20.45±5.11%
same,"ability to induce calcium flux, P61-related peptides compared",Mas receptor,more potent than the monomeric P61 peptides
